Source: publication PMC10999543, “Identification of kinase modulators as host-directed therapeutics against intracellular methicillin-resistant Staphylococcus aureus” (Frontiers in Cellular and Infection Microbiology, 2024)

What was measured:
MCF7 cells = assay type: cell-based, human; conditions: 10 µM
Protocol: (§1) Before harvesting or lysing the cells of the intracellular infection assays, the supernatant from the cells was collected to quantify LDH release by the cells using the LDH cytotoxicity detection kit (Roche, Merck, Darmstadt, Germany) according to the manufacturer’s instructions. Triton X-100 results in maximum LDH release by permeabilizing the cells and was used as positive control. Quantification was performed with the EnVision plate reader.

A549 cells = assay type: cell-based, human; conditions: 10 µM
Protocol: as §1

[1] = tested on: other strains of S. aureus; test: CFU count in HeLa cells infected with other strains of S. aureus; assay type: cell-based, Staphylococcus aureus; conditions: Supplementary Figure S8A
Protocol: The cells were resuspended in cell culture medium without antibiotics, seeded with 10,000 cells/well into Costar flat-bottom 96-well plates (Corning, Amsterdam, the Netherlands), and were incubated overnight at 37°C/5% CO2. The next day, the bacteria were centrifuged at ≥1800 g for 15 min and resuspended in cold PBS + 5 mM ethylenediaminetetraacetic acid (EDTA). The number of CFUs present in the bacterial suspension was estimated from the optical density at 600 nm (OD600) by assuming 8x10^8 CFUs to be present in a bacterial suspension with OD600 = 1, based on prior titrations. The bacterial suspension was diluted in cell culture medium without antibiotics and added to the cells. Accuracy of the multiplicity of infection (MOI) was validated by plating serial dilutions of the MRSA inoculums on Difco TS agar plates (BD Biosciences). The calculated mean MOI throughout all experiments was 6.8 ± 4.6 (mean ± SD). Infected cells were centrifuged for 3 min at 150 g and incubated for 1 hour at 37°C/5% CO2. Next, the cells were incubated with fresh cell culture medium supplemented with 30 µg/ml gentamicin sulphate (Lonza BioWhittaker, Basel, Switzerland) for 15 min at 37°C/5% CO2 to kill residual extracellular bacteria. […]

AMPK [2] = test: Phosphorylation of AMPK at Thr172 by western blot; assay type: cell-based, human; conditions: MRSA-infected HeLa cells
Protocol: HeLa cells were seeded with 100,000 cells/well in 24-wells plates. In short, the cells were lysed in EBSB buffer (10% v/v glycerol, 3% SDS, 100 mM Tris-HCl, pH 6.8) supplemented with one tablet of cOmplete EDTA-free protease inhibitor cocktail (Sigma-Aldrich) and proteins were denaturated at 95°C for 5 min. Protein concentrations were determined using a Pierce™ BCA protein assay kit (Thermo Fisher Scientific). Samples were diluted in Laemmli sample buffer and loaded on a 15-well 4–20% Mini-PROTEAN® TGX™ Precast Protein Gel for electrophoresis (both from Bio-Rad, Hercules, CA, USA). […] Membranes were blocked for 1h in PBS supplemented with 5% w/v non-fat dry milk. Next, the membranes were cut and each protein was separately stained with primary antibodies against actin and LC3B in PBS supplemented with 5% w/v non-fat dry milk, or against AMPKα and AMPKα-pThr172 in PBS supplemented with 5% BSA (antibodies listed in Supplementary Table S1 ). Membranes were stained with secondary antibodies in PBS supplemented with 5% w/v non-fat dry milk. After each staining, membranes were washed four times in PBS + 0.1% Tween20. Prior to revelation, the membranes were incubated for 10 min in enhanced chemiluminescence (ECL) Prime Western Blotting System reagent (GE Healthcare, Hoevelaken, The Netherlands). […] Protein bands were quantified using Fiji software ([Schindelin et al., 2012]).

AMPK [3] = test: Phosphorylation of ACC1 at Ser80 by flow cytometry (readout for AMPK activity); assay type: cell-based, human; conditions: MRSA-infected HeLa cells
Protocol: To determine the expression of the HER kinase family, cells were harvested using PBS + 5 mM EDTA and fixed in 1% paraformaldehyde for 20 min at RT. To determine phosphorylation of ACC1 at Ser80, cells were harvested by incubation in pre-warmed trypsin-EDTA, which was neutralized after 5 min with an equal volume of FBS, and fixed in 4% ultra-pure formaldehyde (Bio Trend, Cologne, Germany) for 20 min at RT. For intracellular staining, the cells were permeabilized in ice-cold methanol for 20 min. Subsequently, the cells were blocked in PBS + 0.5% bovine serum albumin + 0.005% NaN3 (both from Sigma-Aldrich; FACS buffer) + 5% human serum for 5 min. The cells were labelled with primary and secondary antibodies (listed in Supplementary Table S1 ) in FACS buffer. Samples were measured on the FACSLyric and analysed using FlowJo 10 (FlowJo LCC, Ashland, OR, USA).

AMPK [4] = tested on: AMPK; set-up: method as in Elkins et al., 2016; conditions: ref Elkins et al., 2016; cited from earlier work
EGFR = tested on: EGFR; set-up: method as in Elkins et al., 2016; conditions: PKIS1, Caliper assay, ref Elkins et al., 2016; cited from earlier work
HER4 = tested on: HER4; set-up: method as in Elkins et al., 2016; conditions: PKIS1, Caliper assay, ref Elkins et al., 2016; cited from earlier work

CC(C)c1nc(-c2cccc(NS(=O)(=O)c3c(F)cccc3F)c2F)c(-c2ccnc(Nc3ccc(N4CCOCC4)nc3)n2)s1 [GSK2008607A]
cell viability of MRSA-infected cells (LDH-release) (MCF7 cells): significantly improved the overall survival

COc1ccc2[nH]c3c4[nH]c5ccc(OC)cc5c4c4c(c3c2c1)C(=O)NC4=O [GW296115X]
cell viability of MRSA-infected cells (LDH-release) (A549 cells): rescued the loss of viability | activity against other strains of S. aureus (CFU) [1]: active | AMPK phosphorylation at Thr172 (AMPK [2]): significantly increased AMPK phosphorylation at Thr172 | ACC1 phosphorylation at Ser80 (AMPK [3]): increased ACC1 phosphorylation | action on AMPK in a biochemical assay (AMPK [4]): AMPK inhibitor

O=S(=O)(CCNCc1ccc(-c2ccc3ncnc(Nc4ccc(OCc5cccc(F)c5)c(Cl)c4)c3c2)o1)c1ccccc1 [GW633459A]
% inhibition at 1 µM EGFR (EGFR): 83% | % inhibition at 1 µM HER4 (HER4): 89%
